According to article PMC12560751 (RSC Advances, 2025):

Key:
[1] = test system: NIH/3T3 cell lines; test: Cytotoxicity, 24-hour MTT assay; type: cell-based; conditions: for IC50: Mus musculus, NIH3T3, 24 h, read-out: IC50 against NIH/3T3
[2] = biological target: T1, recombinant hMAO B (Homo sapiens, UniProt P27338); test: MAO B inhibition, fluorometric method; type: biochemical
T1 sequence (P27338 1-520): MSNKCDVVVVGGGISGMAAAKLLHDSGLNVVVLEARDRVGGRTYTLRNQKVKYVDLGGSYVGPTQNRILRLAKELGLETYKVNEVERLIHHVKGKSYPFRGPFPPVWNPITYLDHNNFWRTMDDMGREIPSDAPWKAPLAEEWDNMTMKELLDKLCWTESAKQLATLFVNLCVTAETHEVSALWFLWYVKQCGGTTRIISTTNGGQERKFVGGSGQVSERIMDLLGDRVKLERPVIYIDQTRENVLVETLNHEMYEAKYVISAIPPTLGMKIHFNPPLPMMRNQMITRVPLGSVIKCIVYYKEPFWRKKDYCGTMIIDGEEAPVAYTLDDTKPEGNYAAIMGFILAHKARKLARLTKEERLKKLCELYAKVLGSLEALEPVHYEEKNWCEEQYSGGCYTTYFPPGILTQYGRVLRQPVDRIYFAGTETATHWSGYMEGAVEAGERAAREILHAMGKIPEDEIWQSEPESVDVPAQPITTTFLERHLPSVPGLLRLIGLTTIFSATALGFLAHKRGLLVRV

[3] = biological target: BChE (Homo sapiens, UniProt P06276); test: Anticholinesterase activity, modified colorimetric Ellman method; type: biochemical
[4] = biological target: T2, AChE (Homo sapiens, UniProt P22303); test: as above; type: biochemical
[5] = biological target: T2, AChE; test: Kinetic studies of AChE enzyme inhibition; type: biochemical; conditions: Lineweaver-Burk plot
[6] = biological target: T3, hMAO A (Homo sapiens, UniProt P21397); test: MAO A inhibition, fluorometric method; type: biochemical
T3 sequence (P21397 1-527): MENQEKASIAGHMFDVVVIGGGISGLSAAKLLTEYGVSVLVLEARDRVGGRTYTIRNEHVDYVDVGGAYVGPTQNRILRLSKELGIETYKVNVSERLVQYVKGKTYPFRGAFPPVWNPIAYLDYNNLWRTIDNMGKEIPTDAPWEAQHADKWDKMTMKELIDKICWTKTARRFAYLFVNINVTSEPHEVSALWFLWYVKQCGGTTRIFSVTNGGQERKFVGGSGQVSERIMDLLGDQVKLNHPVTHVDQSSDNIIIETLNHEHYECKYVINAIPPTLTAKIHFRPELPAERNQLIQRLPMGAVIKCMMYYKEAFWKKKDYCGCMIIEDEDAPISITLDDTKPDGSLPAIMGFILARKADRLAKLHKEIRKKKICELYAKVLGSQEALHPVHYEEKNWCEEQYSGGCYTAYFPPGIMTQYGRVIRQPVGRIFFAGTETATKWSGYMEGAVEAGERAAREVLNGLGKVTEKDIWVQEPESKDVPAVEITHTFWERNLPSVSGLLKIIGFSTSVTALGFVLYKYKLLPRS

T2 sequence (P22303 32-614): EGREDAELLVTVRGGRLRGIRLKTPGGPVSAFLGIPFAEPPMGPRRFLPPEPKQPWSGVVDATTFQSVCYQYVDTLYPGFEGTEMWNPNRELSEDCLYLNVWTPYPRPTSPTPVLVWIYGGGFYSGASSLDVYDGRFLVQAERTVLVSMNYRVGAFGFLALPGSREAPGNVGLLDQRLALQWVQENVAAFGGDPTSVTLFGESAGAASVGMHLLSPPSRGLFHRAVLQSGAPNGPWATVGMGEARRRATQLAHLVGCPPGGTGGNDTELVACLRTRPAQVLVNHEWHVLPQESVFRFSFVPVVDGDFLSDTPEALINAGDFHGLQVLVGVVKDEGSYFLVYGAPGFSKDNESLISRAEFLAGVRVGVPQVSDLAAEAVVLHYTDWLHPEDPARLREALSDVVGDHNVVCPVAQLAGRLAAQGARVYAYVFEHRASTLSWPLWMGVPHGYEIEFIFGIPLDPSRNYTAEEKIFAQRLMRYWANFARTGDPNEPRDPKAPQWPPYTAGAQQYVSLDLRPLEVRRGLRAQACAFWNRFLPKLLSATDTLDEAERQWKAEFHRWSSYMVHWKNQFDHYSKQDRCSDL
Chain of BChE (P06276 29-602, species assumed): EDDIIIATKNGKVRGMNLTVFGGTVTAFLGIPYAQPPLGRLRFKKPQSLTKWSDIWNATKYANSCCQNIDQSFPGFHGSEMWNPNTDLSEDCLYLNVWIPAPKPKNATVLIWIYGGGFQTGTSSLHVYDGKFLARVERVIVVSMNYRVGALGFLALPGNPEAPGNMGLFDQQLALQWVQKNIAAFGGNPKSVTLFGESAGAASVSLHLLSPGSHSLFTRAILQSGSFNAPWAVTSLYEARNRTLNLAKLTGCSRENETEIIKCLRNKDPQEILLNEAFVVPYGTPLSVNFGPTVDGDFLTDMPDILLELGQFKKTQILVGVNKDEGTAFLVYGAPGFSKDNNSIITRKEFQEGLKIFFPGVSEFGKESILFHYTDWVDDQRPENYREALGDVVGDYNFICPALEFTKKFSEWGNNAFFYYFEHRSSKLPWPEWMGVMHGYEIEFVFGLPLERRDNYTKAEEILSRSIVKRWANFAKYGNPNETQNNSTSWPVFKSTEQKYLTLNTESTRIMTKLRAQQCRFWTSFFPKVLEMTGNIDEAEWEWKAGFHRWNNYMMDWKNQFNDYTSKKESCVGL

SMILES | IC50 [1] [µM] | IC50 ([2]; MAO B IC50, tables) [µM] | IC50 ([2]; MAO B IC50, text) [µM] | inhibition at 100 µM ([2]; read-out: MAO B % inhibition) [%] | inhibition at 1000 µM ([2]; read-out: MAO B % inhibition) [%] | IC50 [3] [µM] | inhibition at 100 µM ([3]; read-out: BChE % inhibition) [%] | inhibition at 1000 µM ([3]; read-out: BChE % inhibition) [%] | IC50 [4] [µM] | inhibition at 100 µM ([4]; read-out: AChE % inhibition) [%] | inhibition at 1000 µM ([4]; read-out: AChE % inhibition) [%] | Selectivity and indexes ([4]; selective for AChE (over BChE)) | type of inhibition [5] | cytotoxicity (in words) ([1]; NIH/3T3, MTT) | IC50 [6] [µM] | inhibition at 100 µM ([6]; read-out: MAO A % inhibition) [%] | inhibition at 1000 µM ([6]; read-out: MAO A % inhibition) [%]
COc1cccc2c1C(=O)c1c(O)c3c(c(O)c1C2=O)C[C@@](O)(C(=O)CO)C[C@@H]3O[C@H]1C[C@H](N)[C@H](O)[C@H](C)O1 [Doxorubicin, reference compound] | > 1000 | – | – | – | – | – | – | – | – | – | – | – | – | – | – | – | –
COc1ccc(C(=O)C=Cc2ccc(NC(=O)CN3CCN(C(C)=O)CC3)cc2)cc1OC [Compound 4g, 2-(4-Acetylpiperazin-1-yl)-N-(4-(3-(3,4-dimethoxyphenyl)-3-oxoprop-1-en-1-yl)phenyl)acetamide] | 32.2 | 0.114 ± 0.003 | < 1 | 89.2 ± 2.17 | 92.3 ± 2.16 | > 1000 | 29.9 ± 0.92 | 36.4 ± 0.954 | 0.027 ± 0.001 | 96.4 ± 2.5 | 98 ± 2.56 | AChE/>1000 | reversible and mixed-type inhibitor | not cytotoxic | > 100 | 39.4 ± 1.11 | 69 ± 2.52
